Data reported in patent publication US6274146A, “Biologically active phytogenous proteoglycan and a method of making thereof” (priority 1999, dated 2001).

Tested on: 1-st type of simple virus herpes, Kleiman strain
Assay: Herpetic meningoencephalitis model in mice
Format: in vivo, white mice
Conditions: for Lethality rate / ML (mean lifespan) / Protective effect (difference between survival rates in experimental and control groups) / Survival rate: introduced 3, 24, 48, 72 and 96 h after infecting
Description: Proteoglycan efficiency was estimated by means of herpetic menigeoencephalitis model in mice. The 1-st type of simple virus herpes of Kleiman strained was used. The virus infectuous titer in Vero cells culture was of 6.5-7.01 1 g CPA50^1 /0.1 ml while by intracerebral or intraperitonneal introduction in white mice mass of 7-8 g it was equal to 5.5-6.0 1 g LD50 /0.03 ml. The strain is characterized by increased neurovirulence. The maximum lesion of cells of fibroblasts in hen embryons or of Vero cells (75-100%) was already observed in 18-20 h after infecting. To reproduce herpetic meningoencephalitis in mice the latter were infected with Kleiman virus intraperitonneally in volume of 0.2 ml of both 10 and 100 LD50 doses. The treatment results were estimated as a mean lifespan (ML) and the protective effect which is difference between survival rates in experimental and control groups.
*-proteoglycan was introduced 5 days before infecting
**-proteoglycan was introduced 5 days until infecting and 3 h after the
** Acyclovir was introduced in 3, 24, 48, 72 and 96 h after the infecting.

**Q.** With Nc1nc2c(ncn2COCCO)c(=O)[nH]1 [Acyclovir] as the compound, how does the Lethality rate (10 LD50 virus dose) read?
**A.** 68%

**Q.** And the “ML (mean lifespan)” value (10 LD50 virus dose)?
**A.** 7.81 ± 1.9 days

**Q.** And the “Protective effect (difference between survival rates in experimental and control groups)” value (10 LD50 virus dose)?
**A.** 15%

**Q.** What about the Survival rate (10 LD50 virus dose) of the same compound?
**A.** 32%

**Q.** And the Effect observed (100 LD50 virus dose)?
**A.** no effect was observed

**Q.** And the Lethality rate (100 LD50 virus dose)?
**A.** 100%

**Q.** What about the “ML (mean lifespan)” value (100 LD50 virus dose) of the same compound?
**A.** 5.3 ± 1.8 days

**Q.** And the “Protective effect (difference between survival rates in experimental and control groups)” value (100 LD50 virus dose)?
**A.** 0%

**Q.** And the Survival rate (100 LD50 virus dose)?
**A.** 0%
